Like-named read-outs stand apart in the source and are kept apart here.
Columns and labels:
EGFR Del19/T790M/C797S = EGFR Del19/T790M/C797S (Homo sapiens, UniProt P00533, C797S/DEL746-750/T790M); test: Biochemical EGFR kinase inhibition assay (Lance Ultra TR-FRET), triple mutant del19/T790M/C797S
Method in brief: (§1)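 Enzyme reactions lasted 1 hour at room temperature with test compounds between 0.003 and 10 μM, followed by 10 mM EDTA quench.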

EGFR L858R/T790M/C797S = EGFR L858R/T790M/C797S (Homo sapiens, UniProt P00533, C797S/L858R/T790M); test: Biochemical EGFR kinase inhibition assay (Lance Ultra TR-FRET), triple mutant L858R/T790M/C797S
Method in brief: as §1

EGFR Del19/C797S = EGFR Del19/C797S (Homo sapiens, UniProt P00533, C797S/DEL746-750); test: Biochemical EGFR kinase inhibition assay (Lance Ultra TR-FRET), double mutant del19/C797S
Method in brief: as §1

EGFR L858R/C797S = EGFR L858R/C797S (Homo sapiens, UniProt P00533, C797S/L858R); test: Biochemical EGFR kinase inhibition assay (Lance Ultra TR-FRET), double mutant L858R/C797S
Method in brief: as §1

EGFR wildtype (WT) = EGFR wildtype (WT) (Homo sapiens, UniProt P00533); test: Biochemical EGFR kinase inhibition assay (Lance Ultra TR-FRET), wildtype
Method in brief: as §1

[1] = ATP at Km, read-out: IC50 Del19/T790M/C797S (nM), Km ATP
[2] = ATP at Km, read-out: IC50 L858R/T790M/C797S (nM), Km ATP
[3] = ATP at Km, read-out: IC50 Del19/C797S (nM), Km ATP
[4] = ATP at Km, read-out: IC50 L858R/C797S (nM), Km ATP
[5] = ATP at Km, read-out: IC50 WT (nM), Km ATP
[6] = IC50 Del19/T790M/C797S (nM), 100 μM ATP
[7] = Km ATP, read-out: IC50 Del19/T790M/C797S (nM), Km ATP
[8] = IC50 L858R/T790M/C797S (nM), 100 μM ATP
[9] = Km ATP, read-out: IC50 L858R/T790M/C797S (nM), Km ATP
[10] = IC50 Del19/C797S (nM), 100 μM ATP
[11] = Km ATP, read-out: IC50 Del19/C797S (nM), Km ATP
[12] = IC50 L858R/C797S (nM), 100 μM ATP
[13] = Km ATP, read-out: IC50 L858R/C797S (nM), Km ATP
[14] = Km ATP, read-out: IC50 WT (nM), Km ATP
[15] = Km ATP, read-out: IC50 Del19/T790M/C797S (nM) Km ATP
[16] = Km ATP, read-out: IC50 L858R/T790M/C797S (nM) Km ATP
[17] = Km ATP, read-out: IC50 Del19/C797S (nM) Km ATP
[18] = Km ATP, read-out: IC50 L858R/C797S (nM) Km ATP
[19] = Km ATP, read-out: IC50 WT (nM) Km ATP

Sequence of EGFR wildtype (WT) (P00533 25-1210): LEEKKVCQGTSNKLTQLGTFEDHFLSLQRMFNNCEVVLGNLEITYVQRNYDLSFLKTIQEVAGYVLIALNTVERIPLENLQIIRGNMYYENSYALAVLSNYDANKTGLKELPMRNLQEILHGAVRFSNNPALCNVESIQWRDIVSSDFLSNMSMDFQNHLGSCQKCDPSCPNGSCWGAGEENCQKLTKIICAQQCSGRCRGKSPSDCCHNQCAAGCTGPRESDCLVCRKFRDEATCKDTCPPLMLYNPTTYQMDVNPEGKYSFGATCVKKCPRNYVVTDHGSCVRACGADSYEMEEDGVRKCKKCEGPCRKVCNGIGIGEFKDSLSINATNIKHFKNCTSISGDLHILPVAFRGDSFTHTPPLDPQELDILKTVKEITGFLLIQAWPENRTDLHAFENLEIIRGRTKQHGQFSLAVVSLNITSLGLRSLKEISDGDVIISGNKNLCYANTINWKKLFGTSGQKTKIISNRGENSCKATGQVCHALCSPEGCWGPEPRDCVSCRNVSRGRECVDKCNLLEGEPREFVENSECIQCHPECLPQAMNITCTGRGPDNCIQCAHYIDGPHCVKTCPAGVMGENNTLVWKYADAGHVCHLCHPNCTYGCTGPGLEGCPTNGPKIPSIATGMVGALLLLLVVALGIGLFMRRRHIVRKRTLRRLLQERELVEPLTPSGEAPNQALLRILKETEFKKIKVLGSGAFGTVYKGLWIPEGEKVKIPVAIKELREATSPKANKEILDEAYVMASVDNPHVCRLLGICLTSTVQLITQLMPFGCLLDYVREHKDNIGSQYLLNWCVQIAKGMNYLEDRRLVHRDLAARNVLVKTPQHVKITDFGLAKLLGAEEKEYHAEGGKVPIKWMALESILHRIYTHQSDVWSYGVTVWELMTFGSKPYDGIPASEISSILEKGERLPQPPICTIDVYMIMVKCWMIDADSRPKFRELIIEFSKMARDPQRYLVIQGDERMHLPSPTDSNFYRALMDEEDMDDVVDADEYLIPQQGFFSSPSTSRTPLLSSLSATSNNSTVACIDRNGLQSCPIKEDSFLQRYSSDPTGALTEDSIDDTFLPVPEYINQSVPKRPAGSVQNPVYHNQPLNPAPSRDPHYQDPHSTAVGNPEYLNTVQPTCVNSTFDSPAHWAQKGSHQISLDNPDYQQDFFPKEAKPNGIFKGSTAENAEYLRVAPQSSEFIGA
Sequence of EGFR Del19/T790M/C797S (P00533 with tags, fused parts or gaps DEL746-750/T790M/C797S): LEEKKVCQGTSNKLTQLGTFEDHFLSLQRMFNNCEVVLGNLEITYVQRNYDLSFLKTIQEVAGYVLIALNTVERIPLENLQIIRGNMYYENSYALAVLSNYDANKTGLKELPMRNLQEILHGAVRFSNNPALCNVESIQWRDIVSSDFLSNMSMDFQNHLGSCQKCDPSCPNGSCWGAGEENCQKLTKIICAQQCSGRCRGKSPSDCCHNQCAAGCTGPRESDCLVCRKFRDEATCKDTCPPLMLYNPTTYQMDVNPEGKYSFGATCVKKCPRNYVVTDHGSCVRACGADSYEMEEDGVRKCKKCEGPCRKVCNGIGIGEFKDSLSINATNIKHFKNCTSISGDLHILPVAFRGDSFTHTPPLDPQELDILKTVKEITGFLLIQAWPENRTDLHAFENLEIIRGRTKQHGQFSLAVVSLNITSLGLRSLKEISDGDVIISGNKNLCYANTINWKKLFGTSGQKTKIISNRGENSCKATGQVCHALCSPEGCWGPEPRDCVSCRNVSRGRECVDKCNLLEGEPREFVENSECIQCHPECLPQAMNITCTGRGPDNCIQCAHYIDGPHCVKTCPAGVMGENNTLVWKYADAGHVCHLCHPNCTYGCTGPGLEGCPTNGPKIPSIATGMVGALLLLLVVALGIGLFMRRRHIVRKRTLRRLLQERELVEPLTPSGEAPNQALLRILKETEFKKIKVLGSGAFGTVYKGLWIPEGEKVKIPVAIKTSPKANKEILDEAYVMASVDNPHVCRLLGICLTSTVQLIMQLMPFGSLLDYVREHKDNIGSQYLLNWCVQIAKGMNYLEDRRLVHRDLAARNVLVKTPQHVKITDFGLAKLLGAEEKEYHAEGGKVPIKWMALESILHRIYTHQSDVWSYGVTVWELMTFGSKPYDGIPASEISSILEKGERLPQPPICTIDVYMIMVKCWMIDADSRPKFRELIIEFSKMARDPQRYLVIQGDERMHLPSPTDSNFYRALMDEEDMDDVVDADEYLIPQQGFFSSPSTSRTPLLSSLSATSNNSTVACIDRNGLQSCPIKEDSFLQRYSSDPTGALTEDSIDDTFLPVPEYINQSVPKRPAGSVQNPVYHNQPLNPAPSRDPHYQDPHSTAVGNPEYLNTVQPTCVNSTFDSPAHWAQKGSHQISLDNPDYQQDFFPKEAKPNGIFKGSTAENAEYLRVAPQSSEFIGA
Sequence of EGFR L858R/C797S (P00533 25-1210 C797S/L858R): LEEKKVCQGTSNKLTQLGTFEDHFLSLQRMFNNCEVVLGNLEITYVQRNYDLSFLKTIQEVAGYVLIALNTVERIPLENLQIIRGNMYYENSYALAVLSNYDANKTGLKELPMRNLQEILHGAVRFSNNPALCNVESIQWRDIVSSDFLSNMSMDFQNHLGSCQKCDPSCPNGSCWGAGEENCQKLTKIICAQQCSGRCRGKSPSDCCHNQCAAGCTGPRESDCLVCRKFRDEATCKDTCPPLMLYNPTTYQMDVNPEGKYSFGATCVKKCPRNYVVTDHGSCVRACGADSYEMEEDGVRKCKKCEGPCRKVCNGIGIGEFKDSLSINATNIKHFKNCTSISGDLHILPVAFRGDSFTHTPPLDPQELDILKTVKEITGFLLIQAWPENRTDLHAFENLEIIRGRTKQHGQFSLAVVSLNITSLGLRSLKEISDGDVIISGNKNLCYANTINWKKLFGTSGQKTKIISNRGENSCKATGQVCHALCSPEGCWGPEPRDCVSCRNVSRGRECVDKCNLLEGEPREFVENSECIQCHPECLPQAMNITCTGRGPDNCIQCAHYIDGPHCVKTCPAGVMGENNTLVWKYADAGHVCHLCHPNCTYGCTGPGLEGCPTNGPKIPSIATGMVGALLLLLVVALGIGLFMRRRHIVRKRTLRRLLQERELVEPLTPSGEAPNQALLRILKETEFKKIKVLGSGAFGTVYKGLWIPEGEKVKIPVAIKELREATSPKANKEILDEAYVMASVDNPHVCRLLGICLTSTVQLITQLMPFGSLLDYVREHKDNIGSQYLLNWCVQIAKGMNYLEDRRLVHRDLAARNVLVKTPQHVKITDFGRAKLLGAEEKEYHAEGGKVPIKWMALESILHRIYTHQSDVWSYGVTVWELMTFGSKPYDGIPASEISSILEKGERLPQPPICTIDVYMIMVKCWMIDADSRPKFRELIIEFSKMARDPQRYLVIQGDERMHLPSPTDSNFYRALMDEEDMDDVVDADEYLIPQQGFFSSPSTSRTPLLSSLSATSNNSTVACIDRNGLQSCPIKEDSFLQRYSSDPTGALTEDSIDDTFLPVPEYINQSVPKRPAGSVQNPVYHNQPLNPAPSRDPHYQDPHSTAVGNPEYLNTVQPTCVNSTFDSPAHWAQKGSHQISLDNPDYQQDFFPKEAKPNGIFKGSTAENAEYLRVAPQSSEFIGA
Sequence of EGFR Del19/C797S (P00533 with tags, fused parts or gaps DEL746-750/C797S): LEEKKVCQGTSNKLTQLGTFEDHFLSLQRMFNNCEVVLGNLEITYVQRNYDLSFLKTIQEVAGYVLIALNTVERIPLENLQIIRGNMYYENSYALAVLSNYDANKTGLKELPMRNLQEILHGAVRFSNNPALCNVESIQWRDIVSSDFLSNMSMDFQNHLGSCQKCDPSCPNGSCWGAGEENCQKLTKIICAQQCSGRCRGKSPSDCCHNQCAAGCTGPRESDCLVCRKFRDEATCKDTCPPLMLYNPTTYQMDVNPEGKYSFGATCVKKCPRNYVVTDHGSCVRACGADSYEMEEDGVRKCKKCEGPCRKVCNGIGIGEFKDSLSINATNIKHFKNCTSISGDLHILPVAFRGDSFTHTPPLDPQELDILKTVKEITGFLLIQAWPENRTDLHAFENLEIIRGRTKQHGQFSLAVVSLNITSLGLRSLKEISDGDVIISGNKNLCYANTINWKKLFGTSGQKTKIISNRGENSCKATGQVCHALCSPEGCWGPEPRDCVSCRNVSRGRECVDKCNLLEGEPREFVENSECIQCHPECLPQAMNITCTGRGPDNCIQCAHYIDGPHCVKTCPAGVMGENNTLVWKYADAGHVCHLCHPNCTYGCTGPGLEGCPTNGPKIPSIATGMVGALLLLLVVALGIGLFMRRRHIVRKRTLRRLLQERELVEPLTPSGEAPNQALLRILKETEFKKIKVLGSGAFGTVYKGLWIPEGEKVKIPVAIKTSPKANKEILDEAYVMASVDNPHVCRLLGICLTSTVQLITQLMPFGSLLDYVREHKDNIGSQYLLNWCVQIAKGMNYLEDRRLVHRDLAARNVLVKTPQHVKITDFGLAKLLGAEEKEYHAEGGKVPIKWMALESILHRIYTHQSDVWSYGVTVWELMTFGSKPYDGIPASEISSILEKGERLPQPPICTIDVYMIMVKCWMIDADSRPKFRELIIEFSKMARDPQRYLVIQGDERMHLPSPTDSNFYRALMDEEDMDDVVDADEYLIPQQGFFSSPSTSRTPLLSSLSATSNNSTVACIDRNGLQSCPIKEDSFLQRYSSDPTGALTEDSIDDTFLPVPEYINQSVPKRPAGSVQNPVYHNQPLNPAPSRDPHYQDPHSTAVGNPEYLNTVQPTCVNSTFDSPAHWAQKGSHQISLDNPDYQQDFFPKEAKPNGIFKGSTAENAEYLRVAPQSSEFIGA

Row | SMILES | IC50 (EGFR Del19/T790M/C797S; [1]) | IC50 (EGFR L858R/T790M/C797S; [2]) | IC50 (EGFR Del19/C797S; [3]) | IC50 (EGFR L858R/C797S; [4]) | IC50 (EGFR wildtype (WT); [5]) | IC50 (EGFR Del19/T790M/C797S; [6]) | IC50 (EGFR L858R/T790M/C797S; [8]) | IC50 (EGFR Del19/C797S; [10]) | IC50 (EGFR L858R/C797S; [12]) | IC50 (EGFR wildtype (WT); IC50 WT (nM), 100 μM ATP) | further results
1 | O=S(=O)(C1CC1)n1cc(-c2nccc(Nc3cc(N[C@H]4CC[C@@H](O)CC4)c(C#Cc4ccc(NCCN5CCOCC5)cc4)cn3)n2)cn1 [Example 172, (1s,4s)-4-((2-((2-(1-(Cyclopropylsulfonyl)-1H-pyrazol-4-yl)pyrimidin-4-yl)amino)-5-((4-((2-morpholinoethyl)amino)phenyl)ethynyl)pyridin-4-yl)amino)cyclohexan-1-ol] | 4.6 nM | 4.8 nM | 14.1 nM | 11.5 nM | 68.4 nM |  |  |  |  |  | IC50 (EGFR Del19/T790M/C797S; read-out: IC50 Del19/T790M/C797S (nM), 100 μM ATP): 6.9 nM; IC50 (EGFR L858R/T790M/C797S; read-out: IC50 L858R/T790M/C797S (nM), 100 μM ATP): 14.5 nM; IC50 (EGFR Del19/C797S; read-out: IC50 Del19/C797S (nM), 100 μM ATP): 32.4 nM; IC50 (EGFR L858R/C797S; read-out: IC50 L858R/C797S (nM), 100 μM ATP): 124 nM; IC50 (EGFR wildtype (WT); read-out: IC50 WT (nM), 100 μM ATP): > 10000 nM
2 | CC1(CO)CCN(c2cc(Nc3ccnc(-c4cnn(CC(F)F)c4)n3)ncc2C#Cc2cnn(C(F)(F)F)c2)CC1 [Example 267, (1-(2-((2-(1-(2,2-Difluoroethyl)-1H-pyrazol-4-yl)pyrimidin-4-yl)amino)-5-((1-(trifluoromethyl)-1H-pyrazol-4-yl)ethynyl)pyridin-4-yl)-4-methylpiperidin-4-yl)methanol] | 1.6 nM | 0.8 nM | 24.2 nM | 4.1 nM | 252 nM | 1.9 nM | 3.1 nM | 12.4 nM | 130 nM | > 10000 nM | 
3 | O=S(=O)(C1CC1)n1cc(-c2nccc(Nc3cc(NC4CCC(O)CC4)c(C#Cc4cnn(C5CC5(F)F)c4)cn3)n2)cn1 (stereo not shown) [Example 85, (1s,4s)-4-((2-((2-(1-(Cyclopropylsulfonyl)-1H-pyrazol-4-yl)pyrimidin-4-yl)amino)-5-((1-(2,2-difluorocyclopropyl)-1H-pyrazol-4-yl)ethynyl)pyridin-4-yl)amino)cyclohexan-1-ol] |  |  |  |  |  | 1.8 nM | 3.5 nM | 7 nM | 50.8 nM | > 10000 nM | IC50 (EGFR Del19/T790M/C797S; [15]): 1.8 nM; IC50 (EGFR L858R/T790M/C797S; [16]): 1 nM; IC50 (EGFR Del19/C797S; [17]): 3.5 nM; IC50 (EGFR L858R/C797S; [18]): 3.1 nM; IC50 (EGFR wildtype (WT); [19]): 114 nM
4 | CN(C)CC1(C)CCN(c2cc(Nc3ccnc(-c4cnn(S(=O)(=O)C5CC5)c4)n3)ncc2C#CC2CCO[C@H]2C(F)(F)F)CC1 (stereo partly drawn) [Example 418, 2-(1-(Cyclopropylsulfonyl)-1H-pyrazol-4-yl)-N-(4-(4-((dimethylamino)methyl)-4-methylpiperidin-1-yl)-5-(((2R)-2-(trifluoromethyl)tetrahydrofuran-3-yl)ethynyl)pyridin-2-yl)pyrimidin-4-amine] |  |  |  |  |  | 1.1 nM | 2.3 nM | 10.1 nM | 235 nM | > 10000 nM | 
5 | CC(O)C1CCN(c2cc(Nc3ccnc(-c4cnn(S(=O)(=O)C5CC5)c4)n3)ncc2C#Cc2cnn(C)c2)CC1 (stereo not shown) [Example 10, 1-(1-(2-((2-(1-(Cyclopropylsulfonyl)-1H-pyrazol-4-yl)pyrimidin-4-yl)amino)-5-((1-methyl-1H-pyrazol-4-yl)ethynyl)pyridin-4-yl)piperidin-4-yl)ethan-1-ol] |  |  |  |  |  | 0.9 nM | 0.7 nM | 4.4 nM | 12.9 nM | > 10000 nM | IC50 (EGFR Del19/T790M/C797S; [15]): 1.1 nM; IC50 (EGFR L858R/T790M/C797S; [16]): 0.5 nM; IC50 (EGFR Del19/C797S; [17]): 3 nM; IC50 (EGFR L858R/C797S; [18]): 2.8 nM; IC50 (EGFR wildtype (WT); [19]): 31.9 nM
6 | CC1(O)CCN(c2cc(Nc3ccnc(-c4cnn(S(=O)(=O)C5CC5)c4)n3)ncc2C#Cc2cccnc2)CC1 [Example 280, 1-(2-((2-(1-(Cyclopropylsulfonyl)-1H-pyrazol-4-yl)pyrimidin-4-yl)amino)-5-(pyridin-3-ylethynyl)pyridin-4-yl)-4-methylpiperidin-4-ol] | 0.5 nM | 0.4 nM | 0.3 nM | 0.6 nM | 3.5 nM | 0.3 nM | 0.6 nM | 0.5 nM | 6.3 nM | > 10000 nM | 
7 | CC1(CO)CCN(c2cc(Nc3ccnc(-c4cnn(S(=O)(=O)C5CC5)c4)n3)ncc2C#Cc2ccc(C(=O)N3CCOCC3)cc2)CC1 [Example 263, (4-((6-((2-(1-(Cyclopropylsulfonyl)-1H-pyrazol-4-yl)pyrimidin-4-yl)amino)-4-(4-(hydroxymethyl)-4-methylpiperidin-1-yl)pyridin-3-yl)ethynyl)phenyl)(morpholino)methanone] | 1.1 nM | 0.4 nM | 0.8 nM | 0.7 nM | 3 nM | 1.5 nM | 1.2 nM | 1.3 nM | 3.2 nM | > 10000 nM | 
8 | Cn1cc(C#Cc2cnc(Nc3ccnc(-c4cnn(S(=O)(=O)C5CC5)c4)n3)cc2N2CCC(NCC3CC3)CC2)cn1 [Example 124, N-(4-(4-((Cyclopropylmethyl)amino)piperidin-1-yl)-5-((1-methyl-1H-pyrazol-4-yl)ethynyl)pyridin-2-yl)-2-(1-(cyclopropylsulfonyl)-1H-pyrazol-4-yl)pyrimidin-4-amine] |  |  |  |  |  | 3 nM | 2.6 nM | 26.3 nM | 154 nM | > 10000 nM | 
9 | CS(=O)(=O)N1CCC(C#Cc2cnc(Nc3ccnc(-c4cnn(S(=O)(=O)C5CC5)c4)n3)cc2NC2CCC(O)CC2)C1 (stereo not shown) [Example 399, (1s,4s)-4-((2-((2-(1-(Cyclopropylsulfonyl)-1H-pyrazol-4-yl)pyrimidin-4-yl)amino)-5-((1-(methylsulfonyl)pyrrolidin-3-yl)ethynyl)pyridin-4-yl)amino)cyclohexan-1-ol] |  |  |  |  |  | 5.7 nM | 1.2 nM | 1.4 nM | 28.2 nM | > 10000 nM | IC50 (EGFR Del19/T790M/C797S; [7]): 1.3 nM; IC50 (EGFR L858R/T790M/C797S; [9]): 0.8 nM; IC50 (EGFR Del19/C797S; [11]): 0.6 nM; IC50 (EGFR L858R/C797S; [13]): 1.6 nM; IC50 (EGFR wildtype (WT); [14]): 10.2 nM

Now from value to molecule, other results behind:

Row | IC50 (EGFR Del19/T790M/C797S; [1]) | IC50 (EGFR L858R/T790M/C797S; [2]) | IC50 (EGFR Del19/C797S; [3]) | IC50 (EGFR L858R/C797S; [4]) | IC50 (EGFR wildtype (WT); [5]) | IC50 (EGFR Del19/T790M/C797S; [6]) | IC50 (EGFR L858R/T790M/C797S; [8]) | IC50 (EGFR Del19/C797S; [10]) | IC50 (EGFR L858R/C797S; [12]) | IC50 (EGFR wildtype (WT); IC50 WT (nM), 100 μM ATP) | SMILES | further results
10 |  |  |  |  |  | 0.2 nM | 0.3 nM | 2.4 nM | 80.1 nM | > 10000 nM | O=S(=O)(C1CC1)n1cc(-c2nccc(Nc3cc(N[C@H]4CC[C@@H](O)CC4)c(C#CC4C[C@@H]5CC[C@@H]4O5)cn3)n2)cn1 (stereo partly shown) [Example 427, (1s,4s)-4-((5-((7-Oxabicyclo[2.2.1]heptan-2-yl)ethynyl)-2-((2-(1-(cyclopropylsulfonyl)-1H-pyrazol-4-yl)pyrimidin-4-yl)amino)pyridin-4-yl)amino)cyclohexan-1-ol] | IC50 (EGFR Del19/T790M/C797S; [7]): 0.3 nM; IC50 (EGFR L858R/T790M/C797S; [9]): 0.2 nM; IC50 (EGFR Del19/C797S; [11]): 2.7 nM; IC50 (EGFR L858R/C797S; [13]): 3.2 nM; IC50 (EGFR wildtype (WT); [14]): 12 nM
11 | 0.1 nM | 0.1 nM | 0.4 nM | 1 nM | 4.4 nM | 0.2 nM | 0.2 nM | 0.6 nM | 10.8 nM | 1890 nM | CC1(CO)CCN(c2cc(Nc3ccnc(-c4cnn(S(=O)(=O)C5CC5)c4)n3)ncc2C#CCCO)CC1 [Example 274, 4-(6-((2-(1-(Cyclopropylsulfonyl)-1H-pyrazol-4-yl)pyrimidin-4-yl)amino)-4-(4-(hydroxymethyl)-4-methylpiperidin-1-yl)pyridin-3-yl)but-3-yn-1-ol] | 
12 |  |  |  |  |  | 0.2 nM | 1.7 nM | 1.2 nM | 21.6 nM | 5060 nM | CC1(CO)CCN(c2cc(Nc3ccnc(-c4cnn(S(=O)(=O)C5CC5)c4)n3)ncc2C#CC2CCN(C(=O)C(F)(F)F)C2)CC1 (stereo not shown) [Example 415, 1-(3-((6-((2-(1-(Cyclopropylsulfonyl)-1H-pyrazol-4-yl)pyrimidin-4-yl)amino)-4-(4-(hydroxymethyl)-4-methylpiperidin-1-yl)pyridin-3-yl)ethynyl)pyrrolidin-1-yl)-2,2,2-trifluoroethan-1-one] | 
13 | 0.1 nM | 0.05 nM | 0.7 nM | 0.6 nM | 6.1 nM | 0.1 nM | 0.1 nM | 0.6 nM | 6 nM | 2920 nM | CN1CCC(C#Cc2cnc(Nc3ccnc(-c4cnn(S(=O)(=O)C5CC5)c4)n3)cc2NC2CCC(O)CC2)C1 (stereo not shown) [Example 181, (1s,4s)-4-((2-((2-(1-(Cyclopropylsulfonyl)-1H-pyrazol-4-yl)pyrimidin-4-yl)amino)-5-((1-methylpyrrolidin-3-yl)ethynyl)pyridin-4-yl)amino)cyclohexan-1-ol] | 
